Laboratory results reported in patent publication US9827260B2, “Composition for buffered aminoalkyl glucosaminide phosphate compounds and its use for enhancing an immune response” (GlaxoSmithKline Biologicals s.a., priority 2013, dated 2017).

What was measured:
[1] = Accelerated stability test (forced degradation), 14 days at 40° C; conditions: both buffers at pH=7.0, FIG. 5
Experimental: Buffers 1-7 of Table 1 were screened for stability at the concentrations shown in the Table using an accelerated stability test. The buffer compositions were maintained for 14 days at 40° C.

[2] = Sonication processing time to achieve a clear solution of CRX-601 buffered formulations; type: physicochemical
Experimental: CRX-601 was formulated in the 10 mM HEPES buffered at pH=7.0 at 2 mg/mL target concentration by weighing 3.99 mg of CRX-601 and adding 1.877 mL of 10 mM HEPES followed by ultrasonication in a water bath sonicator. After 25 minutes the solution was visibly clear, but the sonication was continued since the other CRX-601 formulations with the other buffers employed herein had not yet achieved similar visual appearance. This was done because the goal was to subject each CRX-601 buffered formulation to the same amount of processing energy.
CRX-601 was formulated in the 10 mM HEPES buffered at pH=8.0 at 2 mg/mL target concentration by weighing 3.99 mg of CRX-601 and adding 1.877 mL of 10 mM HEPES followed by ultrasonication in a water bath sonicator. After 25 minutes the solution was visibly clear, but the sonication was continued since the other CRX-601 formulations with the other buffers employed herein had not yet achieved similar visual appearance. This was done because the goal was to subject each CRX-601 buffered formulation to the same amount of processing energy.
Each of the buffer solutions was then sonciated to reduce the particle size to allow for sterile filtration.

CCCCCCCCCCC[C@H](CC(=O)N[C@H]1[C@H](OC[C@H](NC(=O)C[C@@H](CCCCCCCCCCC)OC(=O)CCCCCCCCC)C(=O)O)O[C@H](CO)[C@@H](OP(=O)(O)O)[C@@H]1OC(=O)C[C@@H](CCCCCCCCCCC)OC(=O)CCCCCCCCC)OC(=O)CCCCCCCCC [CRX-527]
stability of the AGP in HEPES as compared against phosphate buffer [1]: enhanced stability

CCCCCCCCCCC[C@H](CC(=O)N[C@H]1[C@H](OC[C@H](NC(=O)C[C@@H](CCCCCCCCCCC)OCCCCCCCCCC)C(=O)O)O[C@H](CO)[C@@H](OP(=O)(O)O)[C@@H]1OC(=O)C[C@@H](CCCCCCCCCCC)OCCCCCCCCCC)OCCCCCCCCCC [CRX-601]
sonication time until solution visibly clear ([2]; 2 mg/mL in 10 mM HEPES at pH=7.0, water bath sonicator): 25 min
sonication time until solution visibly clear ([2]; 2 mg/mL in 10 mM HEPES at pH=8.0, water bath sonicator): 25 min
stability of the AGP in HEPES as compared against phosphate buffer [1]: enhanced stability
